The values that follow come from article PMC9792171, “Design and synthesis of new thiazolidinone/uracil derivatives as antiproliferative agents targeting EGFR and/or BRAF^V600E” (Frontiers in Chemistry, 2022).

Molecules are shown by their SMILES.

The test system of data set [1] is four human cancer cell lines (A-549, MCF-7, Panc-1, HT-29). Kind of data set: Antiproliferative MTT assay, average of four cancer cell lines (GI50). The conditions noted are these: for IC50: Homo sapiens, average of A-549, MCF-7, Panc-1, HT-29. Format: cell-based. As for the experimental part:
Using the MTT assay ([Abdelrahman et al., 2017]; [El-Sherief et al., 2018]) and doxorubicin as the reference drug, 3a-f and 5a-l were tested for antiproliferative activity against four human cancer cell lines: Panc-1 (pancreas cancer cell line), MCF-7 (breast cancer cell line), HT-29 (colon cancer cell line), and A-549 (epithelial cancer cell line). […]
(§1) To explore the antiproliferative potential of compounds MTT assay was performed according to previously reported procedure (El-Sherief, H.A.M., et al., 2018; Abdelrahman, M. H., et al., 2017) using different cell lines to explore the antiproliferative potential of compounds propidium iodide fluorescence assay was performed using different cell lines. To calculate the total nuclear DNA, a fluorescent dye (propidium iodide, PI) is used which can attach to the DNA, thus offering a quick and precise technique. PI cannot pass through the cell membrane and its signal intensity can be considered as directly proportional to quantity of cellular DNA. Cells whose cell membranes are damaged or have changed permeability are counted as dead ones. The assay was performed by seeding the cells of different cell lines at a density of 3000-7500 cells/well (in 200µl medium) in culture plates followed by incubation for 24h at 37 °C in humidified 5% CO2/95% air atmospheric conditions. The medium was removed; the compounds were added to the plates at 10 µM concentrations (in 0.1% DMSO) in triplicates, followed by incubation for 48 h. DMSO (0.1%) was used as control. After incubation, medium was removed followed by the addition of PI (25 µl, 50µg/mL in water/medium) to each well of the plates. At -80 °C, the plates were allowed to freeze for 24 h, followed by thawing at 25 °C. A fluorometer (Polar-Star BMG Tech) was used to record the readings at excitation and emission wavelengths of 530 and 620 nm for each well. The percentage cytotoxicity of compounds was calculated using the following formula: […]
In general terms: Formazan colour is commonly taken as a measure of viable cells.

In data set [2] the test system is MCF-7 (breast cancer cell line). Nature of the data set: Antiproliferative MTT assay, MCF-7. The data set is classed as cell-based. The settings on record: Homo sapiens, MCF7; MCF-7, MTT; read-out: Antiproliferative activity IC50 ± SEM (nM) MCF-7. The protocol:
(§2) Using the MTT assay ([Abdelrahman et al., 2017]; [El-Sherief et al., 2018]) and doxorubicin as the reference drug, 3a-f and 5a-l were tested for antiproliferative activity against four human cancer cell lines: Panc-1 (pancreas cancer cell line), MCF-7 (breast cancer cell line), HT-29 (colon cancer cell line), and A-549 (epithelial cancer cell line).
as §1

Data set [3] deals with HT-29 (colon cancer cell line). Nature of the data set: Antiproliferative MTT assay, HT-29. The data set is classed as cell-based. The conditions noted are these: Homo sapiens; HT-29, MTT; read-out: Antiproliferative activity IC50 ± SEM (nM) HT-29. As for the experimental part: as §2, §1
The next data set has as its target T1, EGFR (Homo sapiens, UniProt P00533).
T1 construct: EGFR cytoplasmic domain (EGFR-CD, amino acids 645–1186); His6 (N); made in house; host or cells: Sf-9 insect cells (baculovirus; pBlueBacHis2B and pFASTBacHTc)
Kind of data set: EGFR inhibitory assay (EGFR-TK, DELFIA/time-resolved fluorometry). The conditions noted are these: for IC50: read-out: EGFR inhibition IC50 ± SEM. Format: biochemical. As for the experimental part: 5ʹ upstream to the EGFR sequence comprised a sequence that encoded (His)6. Sf-9 cells were infected for 72h for protein expression. The pellets of Sf-9 cells were solubilized in a buffer containing sodium vanadate (100 µM), aprotinin (10 µg/mL), triton (1%), HEPES buffer (50mM), ammonium molybdate (10 µM), benzamidine HCl (16 µg/mL), NaCl (10 mM), leupeptin (10 µg/mL) and pepstatin (10 µg/mL) at 0°C for 20 min at pH 7.4, followed by centrifugation for 20 min. To eliminate the non-specifically bound material, a Ni-NTA super flow packed column was used to pass through and wash the crude extract supernatant first with 10 mM and then with 100 mM imidazole. Histidine-linked proteins were first eluted with 250 and then with 500 mM imidazole after dialysis against NaCl (50 mM), HEPES (20 mM), glycerol (10%) and 1 µg/mL each of aprotinin, leupeptin and pepstatin for 120 min. The purification was performed either at 4 °C or on ice. To record autophosphorylation level, EGFR kinase assay was carried out based on DELFIA/Time-Resolved Fluorometry. The compounds were first dissolved in DMSO absolute, after dilution to appropriate concentration using HEPES (25 mM) at pH 7.4. Each compound (10 µL) was incubated with recombinant enzyme (10 µL, 5 ng for EGFR, 1:80 dilution in 100 mM HEPES) for 10 min at 25 °C, after the addition of 5X buffer (10 µL, containing 2 mM MnCl2, 100 µM Na3VO4, 20 mM HEPES and 1 mM DTT) and ATP-MgCl2 (20 µL, containing 0.1 mM ATP and 50 mM MgCl2) and incubation for 1h. The negative and positive controls were included in each plate by the incubation of enzyme either with or without ATP-MgCl2. The liquid was removed after incubation and the plates were washed thrice using wash buffer. Europium-tagged antiphosphotyrosine antibody (75 µL, 400 ng) was added to each well followed by incubation of 1h and then washing of the plates using buffer. The enhancement solution was added to each well and the signal was recorded at excitation and emission wavelengths of 340 at 615 nm. The autophosphorylation percentage inhibition by compounds was calculated using the following equation: […]

In data set [4] the test system is Panc-1 (pancreas cancer cell line). Nature of the data set: Antiproliferative MTT assay, Panc-1. Format: cell-based. The settings on record: Homo sapiens; Panc-1, MTT; read-out: Antiproliferative activity IC50 ± SEM (nM) Panc-1. As for the experimental part:
as §2, §1

T1 sequence (P00533 669-1210): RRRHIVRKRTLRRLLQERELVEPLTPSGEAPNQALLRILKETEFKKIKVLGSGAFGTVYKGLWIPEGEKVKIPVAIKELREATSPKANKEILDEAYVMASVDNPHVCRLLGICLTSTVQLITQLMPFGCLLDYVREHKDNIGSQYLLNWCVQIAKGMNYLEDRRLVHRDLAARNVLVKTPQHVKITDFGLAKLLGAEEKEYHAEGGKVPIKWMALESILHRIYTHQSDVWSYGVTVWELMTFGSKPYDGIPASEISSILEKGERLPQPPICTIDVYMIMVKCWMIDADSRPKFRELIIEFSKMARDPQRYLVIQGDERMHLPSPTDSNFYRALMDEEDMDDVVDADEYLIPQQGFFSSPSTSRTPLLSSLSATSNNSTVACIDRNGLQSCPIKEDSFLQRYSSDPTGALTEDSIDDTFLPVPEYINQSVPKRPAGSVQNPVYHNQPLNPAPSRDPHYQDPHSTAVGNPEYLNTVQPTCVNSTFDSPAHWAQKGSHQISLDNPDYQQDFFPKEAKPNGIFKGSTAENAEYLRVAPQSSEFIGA

`COC(=O)/C=C1\S/C(=N\c2c[nH]c(=O)[nH]c2=O)N(Cc2ccccc2)C1=O` [Compound 5j, (Z)-Methyl-2-((Z)-3-benzyl-2-((2,4-dioxo-1,2,3,4-tetrahydropyrimidin-5-yl)imino)-4-oxothiazolidin-5-ylidene)acetate] displayed a melting point of 306 to 308 °C. The concentration for half-maximal inhibition (IC50) in data set [1] was determined as 1100 nM. In data set [2], the IC50 stood at 900 ± 100 nM. The IC50 in data set [3] is 1200 ± 100 nM. For the same compound, the half-inhibitory concentration (IC50) on EGFR was 87 ± 5 nM. For the same compound, the half-maximal inhibitory concentration (IC50) in data set [4] was 1200 ± 100 nM.
As for `CCOC(=O)/C=C1\S/C(=N\c2c[nH]c(=O)[nH]c2=O)N(c2cccc(OC)c2)C1=O` [Compound 5c, (Z)-Ethyl-2-((Z)-2-((2,4-dioxo-1,2,3,4-tetrahydropyrimidin-5-yl)imino)-3-(3-methoxyphenyl)-4-oxo-thiazolidin-5-ylidene)acetate], the melting point was in the range of 330 to 332 °C. In data set [1], this compound had a half-inhibitory concentration (IC50) of 1700 nM. Also, the 50% inhibitory concentration (IC50) in data set [2] was found to be 1600 ± 100 nM. Further, in data set [3], the IC50 is 1800 ± 100 nM. For the same compound, at EGFR, the IC50 was determined as 115 ± 10 nM. Further, the concentration for half-maximal inhibition (IC50) in data set [4] came to 1900 ± 200 nM.
In turn, `COC(=O)/C=C1\S/C(=N\c2c[nH]c(=O)[nH]c2=O)N(c2cccc(OC)c2)C1=O` [Compound 5i, (Z)-Methyl-2-((Z)-2-((2,4-dioxo-1,2,3,4-tetrahydropyrimidin-5-yl)imino)-3-(3-methoxyphenyl)-4-oxothiazolidin-5-ylidene)acetate] returned a melting point of 322 to 324 °C. This compound also showed an IC50 in data set [1] of 1350 nM. For the same compound, in data set [2], the IC50 is 1000 ± 80 nM. For the same compound, the IC50 in data set [3] amounted to 1600 ± 100 nM. Also, the half-inhibitory concentration (IC50) on EGFR amounted to 96 ± 7 nM. The 50% inhibitory concentration (IC50) in data set [4] was determined as 1500 ± 100 nM.
Consider `CCOC(=O)/C=C1\S/C(=N\c2c[nH]c(=O)[nH]c2=O)N(c2ccc(C)cc2)C1=O` [Compound 5b, (Z)-Ethyl-2-((Z)-2-((2,4-dioxo-1,2,3,4-tetrahydropyrimidin-5-yl)imino)-4-oxo-3-(p-tolyl)thiazolidin-5-ylidene)acetate], for which the 50% inhibitory concentration (IC50) came to 1300 nM in data set [1]; 1100 ± 100 nM in data set [2]; 1400 ± 100 nM in data set [3]; 91 ± 7 nM on EGFR; 1400 ± 100 nM in data set [4]. Moreover, in data set [1] (ratio of GI50 values), the “fold less potent than compound 5j (GI50)” value is on record as 1.2 fold.
Consider `COc1cccc(NC(=S)Nc2c[nH]c(=O)[nH]c2=O)c1` [Compound 3c, 1-(2,4-Dioxo-1,2,3,4-tetrahydropyrimidin-5-yl)-3-(3-methoxyphenyl)thiourea], for which the melting point lay within 350 to 352 °C. Besides, the concentration for half-maximal inhibition (IC50) in data set [1] was determined as 1850 nM. The IC50 in data set [2] is 1400 ± 100 nM. The IC50 in data set [3] was 2100 ± 200 nM. Moreover, on EGFR (ratio of EGFR IC50 values), the “fold less potent than erlotinib (EGFR IC50)” value was 1.6 fold. For the same compound, the IC50 at EGFR came to 125 ± 11 nM. In addition, in data set [4], the IC50 is 2100 ± 200 nM.
In turn, `COC(=O)/C=C1\S/C(=N\c2c[nH]c(=O)[nH]c2=O)N(c2ccc(C)cc2)C1=O` [Compound 5h, (Z)-Methyl-2-((Z)-2-((2,4-dioxo-1,2,3,4-tetrahydropyrimidin-5-yl)imino)-4-oxo-3-(p-tolyl)-thiazolidin-5-ylidene)acetate] displayed a melting point of 308 to 310 °C. In addition, half-maximal inhibition in data set [1] (IC50) required 1650 nM. Besides, the half-maximal inhibitory concentration (IC50) in data set [2] came to 1700 ± 100 nM. The IC50 in data set [3] worked out at 1700 ± 100 nM. Further, the IC50 at EGFR came out at 112 ± 10 nM. The IC50 in data set [4] was 1800 ± 100 nM.

The IC50 is the concentration needed to halve the response being measured. As usually defined, the melting point is the temperature of the solid-liquid transition.
